Experiments:
hERG = hERG (Homo sapiens (Human), UniProt Q12809); assay: hERG Qpatch assay; assay type: cell-based
Description: Example 3. hERG Qpatch Assay Protocol
This assay was performed by the method described in Skepper et al., J. Med. Chem. 2020, 63, 7773-7816:
hERG expressing cell lines were produced in-house at Novartis using CHO-K1 T-Rex inducible plasmid system (Invitrogen) as described previously (Cao et al., Assay Drug Dev. Technol. 2010, 8, 766-780). Cell lines were maintained in Ham's F12 nutrient mixture containing 10% FBS, blasticidin ([…]; InvivoGen), hygromycin B ([…]; InvivoGen), Zeocin ([…], Invitrogen), and neomycin ([…], Invitrogen) using SelecT automated cell culture system (TAP Biosystems, Cambridge, U.K.). hERG and hCav1.2 channels expression was induced with tetracycline (0.25-1 μg/mL, Invitrogen) at least 24 h prior to the experiment.
hERG currents were recorded using the Qpatch automated patch clamp systems (Sophion Bioscience Inc., North Brunswick, NJ) in the whole (single) cell configuration. hERG expressing CHO-K1 cells were harvested with Detachin (Genlantis) and stored in the modified serum-free SFM-2 media (Life Technologies) at room temperature. The extracellular solution contained (in mM) NaCl (145), KCl (4), MgCl2 (1), CaCl2 (2), and HEPES (10), pH 7.4, with NaOH. The intracellular solution contained KCl (135), MgCl2 (1.75), CaCl2 (5.4), EGTA (10), K2-ATP (4), and HEPES (10), pH 7.2, with KOH. After whole cell configuration was achieved, the cell was held at −90 mV, and a 0.1 s pulse to −50 mV was delivered to measure the leaking current, which was subtracted from the tail current online. Then the cell was depolarized to +20 mV for 4 s (prepulse), followed by a 4 s test pulse to −50 mV to reveal the hERG tail current. To monitor changes in the current amplitude, this voltage protocol was repeatedly applied every 20 s. Test compounds were first diluted in DMSO for six dose-response experiments and then dissolved in the extracellular solution using Freedom EVO liquid handling robotic system (Tecan, Männedorf, Switzerland). The final DMSO concentration in samples was 0.3% v/v. Amitriptyline (Sigma) was tested as a positive control. Data were analyzed using in-house developed MatLab-based program (MathWorks, Natick, MA

NR2B = NR2B (Rattus norvegicus (Rat), UniProt Q00960); assay: NR2B rat cortical neuron calcium influx assay; assay type: cell-based; settings: for relative potency in the NR2B rat cortical neuron calcium influx assay: comparison within Examples 5A/5B/5C/5D; for IC50: rat cortical neurons, glutamate and glycine stimulated calcium influx
NR2B, sequence (Q00960 27-1482, other chains not shown): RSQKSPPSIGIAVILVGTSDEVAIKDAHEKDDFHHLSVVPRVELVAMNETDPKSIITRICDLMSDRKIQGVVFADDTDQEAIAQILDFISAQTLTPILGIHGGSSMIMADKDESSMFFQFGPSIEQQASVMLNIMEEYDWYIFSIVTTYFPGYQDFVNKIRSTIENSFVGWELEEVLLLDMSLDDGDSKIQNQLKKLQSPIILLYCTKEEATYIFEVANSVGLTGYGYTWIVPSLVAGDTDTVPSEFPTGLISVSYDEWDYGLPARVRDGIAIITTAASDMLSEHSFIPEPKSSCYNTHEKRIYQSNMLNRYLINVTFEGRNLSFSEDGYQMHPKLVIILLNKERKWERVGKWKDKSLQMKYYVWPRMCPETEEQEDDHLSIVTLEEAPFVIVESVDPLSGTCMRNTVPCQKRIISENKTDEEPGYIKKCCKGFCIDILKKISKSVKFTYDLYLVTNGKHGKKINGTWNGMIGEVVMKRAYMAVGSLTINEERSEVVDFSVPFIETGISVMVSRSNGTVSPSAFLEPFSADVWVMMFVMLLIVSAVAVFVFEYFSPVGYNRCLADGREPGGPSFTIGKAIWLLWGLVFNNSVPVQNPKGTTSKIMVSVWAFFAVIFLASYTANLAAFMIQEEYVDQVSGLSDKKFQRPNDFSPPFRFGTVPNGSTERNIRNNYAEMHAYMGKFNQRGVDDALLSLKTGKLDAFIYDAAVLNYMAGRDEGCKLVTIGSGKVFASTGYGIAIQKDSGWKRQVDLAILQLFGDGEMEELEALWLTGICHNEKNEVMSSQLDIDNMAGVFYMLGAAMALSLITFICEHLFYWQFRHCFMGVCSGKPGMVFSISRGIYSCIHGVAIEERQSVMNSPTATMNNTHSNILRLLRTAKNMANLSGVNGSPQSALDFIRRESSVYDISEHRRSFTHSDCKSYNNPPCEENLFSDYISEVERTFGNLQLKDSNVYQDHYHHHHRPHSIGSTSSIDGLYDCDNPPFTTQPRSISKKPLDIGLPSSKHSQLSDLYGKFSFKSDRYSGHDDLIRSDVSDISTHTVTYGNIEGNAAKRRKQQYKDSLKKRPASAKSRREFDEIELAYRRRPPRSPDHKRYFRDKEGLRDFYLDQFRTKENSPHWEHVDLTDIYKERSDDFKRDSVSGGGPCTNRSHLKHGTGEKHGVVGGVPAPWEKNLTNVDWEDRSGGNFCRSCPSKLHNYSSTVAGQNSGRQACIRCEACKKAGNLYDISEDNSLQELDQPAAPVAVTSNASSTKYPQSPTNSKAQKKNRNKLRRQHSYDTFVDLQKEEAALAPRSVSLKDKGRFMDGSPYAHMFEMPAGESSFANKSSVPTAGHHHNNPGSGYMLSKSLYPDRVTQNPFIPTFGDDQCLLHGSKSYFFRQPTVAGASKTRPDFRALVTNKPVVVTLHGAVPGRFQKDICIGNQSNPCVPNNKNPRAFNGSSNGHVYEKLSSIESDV
In short: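 Primary cortical neurons from E18 Sprague Dawley rat embryos, cultured 2 days, were loaded with Calcium 6 dye in 1.8 mM Ca-HBSS and preincubated with compound 2 h at 37° C. Glutamate plus glycine was added and fluorescence read for 2 min as peak/baseline ratio; duplicate dose-response curves gave IC50 (μM) and maximal inhibition.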

P-glycoprotein (P-gp) = P-glycoprotein (P-gp) (Homo sapiens (Human), UniProt P08183); assay: MDCK-MDR1 permeability / efflux assay; assay type: in vitro ADME; settings: for MDCK-MDR1 ER: efflux ratio, 10 μM, 120 min; for efflux ratio at 120 min, 10 μM: dog, MDCK-MDR1, pH 7.4, efflux ratio, read-out: MDCK-MDR1 ER
P-glycoprotein (P-gp), sequence (P08183 whole entry): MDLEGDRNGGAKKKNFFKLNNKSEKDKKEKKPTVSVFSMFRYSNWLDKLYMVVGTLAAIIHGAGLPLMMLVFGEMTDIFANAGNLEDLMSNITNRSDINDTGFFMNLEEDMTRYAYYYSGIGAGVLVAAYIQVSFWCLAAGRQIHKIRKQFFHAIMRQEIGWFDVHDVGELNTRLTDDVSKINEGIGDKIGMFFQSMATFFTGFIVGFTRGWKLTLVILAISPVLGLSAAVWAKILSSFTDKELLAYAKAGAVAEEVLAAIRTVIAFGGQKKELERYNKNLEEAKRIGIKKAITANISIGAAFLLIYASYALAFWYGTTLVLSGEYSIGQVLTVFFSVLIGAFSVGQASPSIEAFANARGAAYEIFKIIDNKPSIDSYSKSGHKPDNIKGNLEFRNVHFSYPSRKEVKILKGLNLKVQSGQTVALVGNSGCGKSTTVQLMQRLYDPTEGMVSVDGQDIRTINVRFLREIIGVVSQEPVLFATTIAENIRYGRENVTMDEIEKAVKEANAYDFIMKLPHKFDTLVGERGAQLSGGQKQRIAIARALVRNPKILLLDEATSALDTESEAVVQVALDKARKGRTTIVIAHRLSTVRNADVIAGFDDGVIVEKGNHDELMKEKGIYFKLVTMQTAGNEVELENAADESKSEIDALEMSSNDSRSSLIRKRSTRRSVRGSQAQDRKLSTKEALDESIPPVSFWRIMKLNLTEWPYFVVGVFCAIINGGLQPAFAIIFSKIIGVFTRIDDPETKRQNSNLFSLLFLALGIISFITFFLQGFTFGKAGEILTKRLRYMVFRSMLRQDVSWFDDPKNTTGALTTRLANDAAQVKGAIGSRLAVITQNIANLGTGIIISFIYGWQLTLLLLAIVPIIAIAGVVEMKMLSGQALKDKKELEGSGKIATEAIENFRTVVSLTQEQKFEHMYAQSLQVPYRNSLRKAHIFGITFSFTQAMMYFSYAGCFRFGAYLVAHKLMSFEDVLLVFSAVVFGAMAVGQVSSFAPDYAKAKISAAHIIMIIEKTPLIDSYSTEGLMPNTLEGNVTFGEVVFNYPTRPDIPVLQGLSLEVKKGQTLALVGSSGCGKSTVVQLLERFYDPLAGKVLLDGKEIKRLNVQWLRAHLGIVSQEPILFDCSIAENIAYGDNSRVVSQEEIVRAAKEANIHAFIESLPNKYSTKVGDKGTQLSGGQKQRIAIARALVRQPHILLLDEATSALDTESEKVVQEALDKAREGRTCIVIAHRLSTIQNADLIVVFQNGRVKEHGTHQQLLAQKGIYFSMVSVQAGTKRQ
In short: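 MDCK-MDR1 monolayers grown 4 days on Transwells; 10 μM compound in HBSS/10 mM HEPES pH 7.4 with 0.02% BSA, run A→B and B→A for 120 min at 37 °C without shaking. Donor and receiver concentrations by LC-MS/MS; Papp and recovery calculated, efflux ratio from B→A vs A→B.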

[1] = Table 2, hERG expressing CHO-K1 cells

hERG, sequence (Q12809 whole entry): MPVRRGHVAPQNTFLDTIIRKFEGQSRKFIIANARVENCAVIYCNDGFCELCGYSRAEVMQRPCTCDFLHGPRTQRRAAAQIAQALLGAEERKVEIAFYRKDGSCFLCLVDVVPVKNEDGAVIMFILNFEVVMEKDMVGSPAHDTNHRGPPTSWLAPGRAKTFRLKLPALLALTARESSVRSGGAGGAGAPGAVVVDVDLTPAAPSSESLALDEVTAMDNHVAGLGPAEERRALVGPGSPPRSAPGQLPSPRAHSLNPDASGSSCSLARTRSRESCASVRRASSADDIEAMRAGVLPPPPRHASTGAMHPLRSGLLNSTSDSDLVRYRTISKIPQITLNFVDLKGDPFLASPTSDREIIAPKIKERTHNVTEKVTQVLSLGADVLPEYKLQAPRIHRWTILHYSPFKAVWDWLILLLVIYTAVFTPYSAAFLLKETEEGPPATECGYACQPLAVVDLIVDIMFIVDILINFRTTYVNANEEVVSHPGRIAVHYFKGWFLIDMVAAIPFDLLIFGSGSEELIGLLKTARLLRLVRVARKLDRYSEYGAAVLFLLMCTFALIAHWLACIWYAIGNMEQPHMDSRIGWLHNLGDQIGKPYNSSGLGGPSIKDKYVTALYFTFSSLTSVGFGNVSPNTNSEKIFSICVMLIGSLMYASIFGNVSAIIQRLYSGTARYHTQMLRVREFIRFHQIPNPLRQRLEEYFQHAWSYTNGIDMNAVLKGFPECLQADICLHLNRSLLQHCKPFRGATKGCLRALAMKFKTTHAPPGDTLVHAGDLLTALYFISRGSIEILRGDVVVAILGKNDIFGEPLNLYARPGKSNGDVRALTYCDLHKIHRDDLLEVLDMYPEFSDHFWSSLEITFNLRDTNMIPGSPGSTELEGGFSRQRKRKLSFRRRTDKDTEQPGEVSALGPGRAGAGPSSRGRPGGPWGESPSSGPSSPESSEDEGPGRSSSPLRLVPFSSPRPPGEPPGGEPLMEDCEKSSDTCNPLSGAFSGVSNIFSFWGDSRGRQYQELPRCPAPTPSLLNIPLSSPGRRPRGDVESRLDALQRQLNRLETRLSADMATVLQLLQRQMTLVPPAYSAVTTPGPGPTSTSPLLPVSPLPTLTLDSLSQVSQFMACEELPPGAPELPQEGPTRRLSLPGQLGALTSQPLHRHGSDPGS

| Structure (SMILES) | relative potency in the NR2B rat cortical neuron calcium influx assay (NR2B) | IC50 (NR2B) [nM] | efflux ratio at 120 min, 10 μM (P-glycoprotein (P-gp)) | IC50 (hERG; Table 3, matched pairs) [nM] | MDCK-MDR1 ER (P-glycoprotein (P-gp)) | IC50 (hERG; [1]) [nM] |
| --- | --- | --- | --- | --- | --- | --- |
| O=C1CCc2cc(C(O)CN3C[C@H]4C[C@H](Oc5ccccc5F)C[C@H]4C3)ccc2N1 (mixture of isomers) [Mixture of two isomers at benzylic position, reference compound] | – | – | – | 500 | – | – |
| O=C1CCc2cc(C(O)CN3C[C@H]4C[C@H](Oc5ccccc5F)C[C@@]4(O)C3)ccc2N1 (single isomer, unassigned) [Example 5D] | more potent than Examples 5A and 5B | 0.61 | – | 5900 | 1.93 | 5900 |
| O=C1CCc2cc([C@@H](O)CN3C[C@H]4C[C@H](Oc5ccccc5)C[C@@]4(O)C3)c(F)cc2N1 (single isomer, unassigned) [Example 10A] | – | 0.41 | 1.11 | – | – | 2100 |
| O=C1Nc2c(F)cc([C@@H](O)CN3C[C@H]4C[C@H](Oc5ccccc5)C[C@@]4(O)C3)cc2CS1 (single isomer, unassigned) [Example 16A] | – | 0.051 | 0.66 | – | – | 400 |
| O=C1CCc2cc([C@@H](O)CN3C[C@@H]4C[C@@H](Oc5cccc(F)c5F)C[C@]4(O)C3)ccc2N1 (single isomer, unassigned) [Example 24C] | – | 0.021 | 1.46 | – | – | 1200 |
| O=C1CCc2cc([C@H](O)CN3C[C@H]4C[C@H](Oc5ccccc5F)[C@H](O)[C@@]4(O)C3)cc(F)c2N1 (single isomer, unassigned) [Example 29B] | – | 11 | 4.24 | – | – | 12500 |
| O=C1Nc2cc(F)c([C@@H](O)CN3C[C@H]4C[C@H](Oc5ccccc5)C[C@@]4(O)C3)cc2CO1 (single isomer, unassigned) [Example 36A] | – | 0.49 | 4.04 | – | – | 5500 |
| O[C@H](CN1C[C@H]2C[C@H](Oc3ccccc3F)[C@H](O)[C@@]2(O)C1)c1cnc2[nH]ccc2c1 (single isomer, unassigned) [Example 44B] | – | 1190 | 7.34 | – | – | 15700 |
| O=C1CCc2cc(C(O)CN3CC4CC(Oc5ccccc5F)CC4(O)C3)ccc2N1 (stereo in doubt) [Example 5C, 6-((R)-2-((3aR,5R,6aS)-5-(2-fluorophenoxy)-3a-hydroxyhexahydrocyclopenta[c]pyrrol-2(1H)-yl)-1-hydroxyethyl)-3,4-dihydroquinolin-2(1H)-one] | more potent than Examples 5A and 5B | 0.59 | 2.07 | 6000 | – | 6000 |
| O[C@@H](CN1C[C@H]2C[C@H](Oc3ccc(F)cc3F)C[C@@]2(O)C1)c1ccc2[nH]ncc2c1 [Example 21] | – | 11 | – | – | 1.94 | 3600 |

The next lines start with results.

| relative potency in the NR2B rat cortical neuron calcium influx assay (NR2B) | IC50 (NR2B) [nM] | efflux ratio at 120 min, 10 μM (P-glycoprotein (P-gp)) | Structure (SMILES) | IC50 (hERG; Table 3, matched pairs) [nM] | MDCK-MDR1 ER (P-glycoprotein (P-gp)) | IC50 (hERG; [1]) [nM] |
| --- | --- | --- | --- | --- | --- | --- |
| – | 1.9 | 2.07 | O=C1CCCc2cc([C@H](O)CN3C[C@H]4C[C@H](Oc5ccccc5)C[C@@]4(O)C3)ccc2N1 (single isomer, unassigned) [Example 7B] | – | – | 15200 |
| – | 0.8 | 3.68 | O=c1ccc2cc([C@@H](O)CN3C[C@H]4C[C@H](Oc5ccccc5)C[C@@]4(O)C3)ccc2[nH]1 (single isomer, unassigned) [Example 8A] | – | – | 2800 |
| – | 0.18 | 2.06 | O=C1Nc2ccc([C@H](O)CN3C[C@H]4C[C@H](Oc5ccccc5)C[C@@]4(O)C3)cc2CS1 (single isomer, unassigned) [Example 14B] | – | – | 1300 |
| – | 0.08 | 0.75 | O=C1Nc2c(F)cc([C@H](O)CN3C[C@H]4C[C@H](Oc5ccccc5)C[C@@]4(O)C3)cc2CS1 (single isomer, unassigned) [Example 16B] | – | – | 200 |
| – | 0.013 | 1.11 | O=c1[nH]c2ccc([C@@H](O)CN3C[C@H]4C[C@H](Oc5ccccc5)C[C@@]4(O)C3)cc2s1 (single isomer, unassigned) [Example 17A] | – | – | 200 |
| – | 0.012 | – | O=c1[nH]c2ccc([C@H](O)CN3C[C@H]4C[C@H](Oc5ccccc5F)C[C@@]4(O)C3)cc2s1 (single isomer, unassigned) [Example 18B] | – | – | 1200 |
| – | 0.83 | 3.32 | O=C1Nc2ccc([C@@H](O)CN3C[C@H]4C[C@H](Oc5ccccc5)C[C@@]4(O)C3)cc2CO1 (single isomer, unassigned) [Example 28A] | – | – | 2400 |
| – | 10 | 1.63 | O=C1CCc2cc([C@@H](O)CN3C[C@H]4C[C@H](Oc5ccccc5)C[C@@]4(O)C3)cc(F)c2N1 (single isomer, unassigned) [Example 31A] | – | – | 7300 |
| – | 4.8 | – | O=C1CCc2cc([C@H](O)CN3C[C@H]4C[C@H](Oc5ccccc5)C[C@@]4(O)C3)cc(F)c2N1 (single isomer, unassigned) [Example 31B] | – | – | 3900 |
| – | 4.9 | 1.87 | O=C1Nc2c(F)cc([C@@H](O)CN3C[C@H]4C[C@H](Oc5ccccc5)C[C@@]4(O)C3)cc2CO1 (single isomer, unassigned) [Example 33A] | – | – | 8200 |
| – | 3.6 | 0.91 | O=C1Nc2c(F)cc([C@H](O)CN3C[C@H]4C[C@H](Oc5ccccc5)C[C@@]4(O)C3)cc2CO1 (single isomer, unassigned) [Example 33B] | – | – | 4900 |
| – | 0.19 | 0.93 | O=c1[nH]c2c(F)cc([C@@H](O)CN3C[C@H]4C[C@H](Oc5ccccc5)C[C@@]4(O)C3)cc2s1 (single isomer, unassigned) [Example 42A] | – | – | 2200 |
| – | 0.04 | 0.9 | O=c1[nH]c2c(F)cc([C@H](O)CN3C[C@H]4C[C@H](Oc5ccccc5)C[C@@]4(O)C3)cc2s1 (single isomer, unassigned) [Example 42B] | – | – | 800 |
| – | 0.6 | 3.02 | O=C1CCc2cc([C@@H](O)CN3C[C@H]4C[C@H](Oc5ccccc5)C[C@@]4(O)C3)ccc2N1 [Example 1A, 6-((R)-1-hydroxy-2-((3aS,5S,6aR)-3a-hydroxy-5-phenoxyhexahydrocyclopenta[c]pyrrol-2(1H)-yl)ethyl)-3,4-dihydroquinolin-2(1H)-one] | – | – | 10700 |
| – | 1.6 | 2.3 | O=C1CCc2cc([C@H](O)CN3C[C@H]4C[C@H](Oc5ccccc5)C[C@@]4(O)C3)ccc2N1 [Example 1B, 6-((S)-1-hydroxy-2-((3aS,5S,6aR)-3a-hydroxy-5-phenoxyhexahydrocyclopenta[c]pyrrol-2(1H)-yl)ethyl)-3,4-dihydroquinolin-2(1H)-one] | – | – | 7600 |

Reference: patent US20240208953A1, “"Cyclopenta[c]pyrrol Negative Allosteric Modulators of NR2B"” (Novartis AG, priority 2021, published 2024)
